Our source for the IC50 values is patent EP0993454B1, “BENZO(5,6)CYCLOHEPTA(1,2B)PYRIDINE DERIVATIVES USEFUL FOR INHIBITION OF FARNESYL PROTEIN TRANSFERASE” (SCHERING CORPORATION, priority 1997, dated 1998).

This test addresses farnesyl protein transferase (Homo sapiens, UniProt P49354+P49356). The experiment in a line: FPT IC50 (inhibition of farnesyl protein transferase, in vitro enzyme assay). Format: biochemical. As to conditions: procedure of WO 95/10516, one collective range stated for the five listed compounds. How it is done: FPT IC50 (inhibition of farnesyl protein transferase, in vitro enzyme assay) and COS Cell IC50 (Cell-Based Assay) were determined following the assay procedures described in WO 95/10516, published April 20, 1995. GGPT IC50 (inhibition of geranylgeranyl protein transferase, in vitro enzyme assay), Cell Mat Assay, and anti-tumor activity (in vivo anti-tumor studies) could be determined by the assay procedures described in WO 95/10516. The disclosure of WO 95/10516 is incorporated herein by reference thereto.

Consider `O=C(CC1CCNCC1)N1CCC(C2(O)c3ncc(Br)cc3CCc3cc(Cl)cc(Br)c32)CC1` (centres unmarked) [2 Step A], for which the IC50 fell in the range of 2 to 42 nM.

Turning to `NC(=O)CN1CCC(CC(=O)N2CCC(C3(O)c4ncc(Br)cc4CCc4cc(Cl)cc(Br)c43)CC2)CC1` (centres unmarked) [Example 3, 4-[2-[4-(3,10-dibromo-8-chloro-6,11-dihydro-11-hydroxy-5H-benzo[5,6]cyclohepta-[1,2-B]pyridin-11-yl)-1-piperidinyl]-2-oxoethyl]-1-piperidineacetamide], the IC50 fell in the range of 2 to 42 nM.
